Earlier results as cited in patent US20100272830A1, “Biocide Combination for use in Agricultural Applications” (Industrie De Nora S.p.A., priority 2008, published 2010).
Like-named read-outs stand apart in the source and are kept apart here.

OCl [Hypochlorous acid (HClO), Hypochlorous acid]
HClO, % of total hypochlorite concentration (pH 5, 25° C.): 99.7%
HClO, % of total hypochlorite concentration (pH 6, 25° C.): 96.9%
HClO, % of total hypochlorite concentration (pH 7, 25° C.): 76.0%
HClO, % of total hypochlorite concentration (pH 8, 25° C.): 24%
HClO, % of total hypochlorite concentration (pH 9, 25° C.): 3.1%
HClO, % of total hypochlorite concentration (pH 10, 25° C.): 0.31%
HClO, % of total hypochlorite concentration (pH 11, 25° C.): 0.03%
HClO, % of total hypochlorite concentration (pH 12, 25° C.): 0.003%
